In patent publication US20120225062A1 (priority 2011, published 2012) one finds EC50 and IC50 data, which are given here for 19 compounds.

Assay [1] deals with KMS11 (human myeloma cell line). Nature of the assay: Cell Proliferation Assay (CellTiter-Glo, 3 days). The class given is cell-based. Conditions: KMS-11, 72 h, KMS11-luc cells. Summed up:
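EC50 from CellTiter-Glo luminescence after 3-day, 37° C compound treatment of KMS11 cells seeded at 2000 per well in IMDM plus 10% FBS.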

Assay [2] concerns the target Pim 2 (Homo sapiens, UniProt Q9P1W9). Nature of the assay: Pim 2 AlphaScreen assay (high ATP).
Assay [3] deals with Pim 1 (Homo sapiens, UniProt P11309). Put plainly: Pim 1 AlphaScreen assay (high ATP).
Sequence of Pim 1 (P11309 whole entry): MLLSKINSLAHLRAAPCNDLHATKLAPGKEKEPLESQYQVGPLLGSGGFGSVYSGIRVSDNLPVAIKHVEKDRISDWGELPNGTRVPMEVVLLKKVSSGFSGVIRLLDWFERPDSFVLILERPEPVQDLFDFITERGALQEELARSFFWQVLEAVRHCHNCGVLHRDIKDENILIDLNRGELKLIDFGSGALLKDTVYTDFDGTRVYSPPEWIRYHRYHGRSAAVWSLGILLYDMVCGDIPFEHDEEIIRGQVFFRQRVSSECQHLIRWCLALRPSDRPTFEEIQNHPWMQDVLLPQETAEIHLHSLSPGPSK
Assay [4] has as its target Pim 3 (Homo sapiens, UniProt Q86V86). Put plainly: Pim 3 AlphaScreen assay (high ATP).

Sequence of Pim 2 (Q9P1W9 whole entry): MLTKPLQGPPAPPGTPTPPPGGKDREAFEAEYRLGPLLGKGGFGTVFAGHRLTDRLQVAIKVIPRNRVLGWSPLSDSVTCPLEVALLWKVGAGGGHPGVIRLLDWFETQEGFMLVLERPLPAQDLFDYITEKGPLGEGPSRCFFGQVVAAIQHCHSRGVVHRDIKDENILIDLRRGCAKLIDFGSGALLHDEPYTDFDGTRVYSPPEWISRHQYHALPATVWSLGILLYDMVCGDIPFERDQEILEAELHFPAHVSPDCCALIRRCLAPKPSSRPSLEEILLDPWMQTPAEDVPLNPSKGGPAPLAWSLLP

Regarding `CC(C)Oc1cc(F)c(-c2cccc(C(=O)Nc3cnccc3[C@H]3C[C@@H](N)[C@H](O)[C@@H](C)C3)n2)c(F)c1` [Example 189, N-(4-((1R,3R,4R,5S)-3-amino-4-hydroxy-5-methylcyclohexyl)pyridin-3-yl)-6-(2,6-difluoro-4-isopropoxyphenyl)picolinamide], the EC50 in assay [1] came out at 470 nM. Further, the results for the IC50 in assay [2], in assay [3] and in assay [4] were 2.67 nM, 0.04 nM and 0.96 nM, respectively.

On to `C[C@@H]1C[C@H](N)C[C@H](c2ccncc2NC(=O)c2cccc(-c3c(F)cc(C4(F)CCOCC4)cc3F)n2)C1` [Example 190, N-(4-((1R,3S,5S)-3-amino-5-methylcyclohexyl)pyridin-3-yl)-6-(2,6-difluoro-4-(4-fluorotetrahydro-2H-pyran-4-yl)phenyl)picolinamide], for which the EC50 in assay [1] was 402 nM. Moreover, the IC50 in assay [2] amounted to 3.26 nM; in assay [3], 0.05 nM; in assay [4] it was 2.9 nM.

Regarding `C[C@H]1C[C@@H](c2ccncc2NC(=O)c2cccc(-c3c(F)cc(N4CCOCC4)cc3F)n2)C[C@@H](N)[C@@H]1O` [Example 191, N-(4-((1R,3R,4R,5S)-3-amino-4-hydroxy-5-methylcyclohexyl)pyridin-3-yl)-6-(2,6-difluoro-4-morpholinophenyl)picolinamide], a half-maximal response in assay [1] (EC50) required 263 nM. Besides, the IC50 was 2.31 nM in assay [2], 0.02 nM in assay [3] and 0.52 nM in assay [4].

On to `C[C@@H]1C[C@H](N)C[C@H](c2ccncc2NC(=O)c2cccc(-c3c(F)cc(C4CCOCC4)cc3F)n2)C1` [Example 192, N-(4-((1R,3S,5S)-3-amino-5-methylcyclohexyl)pyridin-3-yl)-6-(2,6-difluoro-4-(tetrahydro-2H-pyran-4-yl)phenyl)picolinamide], for which, in assay [1], the half-maximal effective concentration (EC50) was found to be 114 nM. Further, the half-inhibitory concentration (IC50) in assay [2] amounted to 3.49 nM; in assay [3], 0.02 nM; in assay [4], 1.06 nM.

In assay [1], `C=Cc1ccc(F)c(-c2nc(C(=O)Nc3cnccc3[C@H]3C[C@@H](N)[C@H](O)[C@@H](C)C3)ccc2F)c1F` [Example 193, N-(4-((1R,3R,4R,5S)-3-amino-4-hydroxy-5-methylcyclohexyl)pyridin-3-yl)-6-(2,6-difluoro-3-vinylphenyl)-5-fluoropicolinamide] had an EC50 of 1850 nM. For the same compound, the IC50 in assay [2] was found to be 31.8 nM; in assay [3], 0.47 nM; in assay [4], 10.2 nM.

`C=CCOc1ccc(F)c(-c2nc(C(=O)Nc3cnccc3[C@H]3C[C@@H](N)[C@H](O)[C@@H](C)C3)ccc2F)c1F` [Example 194, 6-(3-(allyloxy)-2.6-difluorophenyl)-N-(4-((1R,3R,4R,5S)-3-amino-4-hydroxy-5-methylcyclohexyl)pyridin-3-yl)-5-fluoropicolinamide] returned an EC50 in assay [1] of 1340 nM. For the same compound, the half-inhibitory concentration (IC50) was determined as 10.4 nM in assay [2], 0.05 nM in assay [3] and 1.19 nM in assay [4].

Turning to `C[C@H]1CN(c2ccncc2NC(=O)c2ccc(F)c(-c3c(F)cc(C4(F)CCOCC4)cc3F)n2)C[C@@H](N)[C@@H]1O` [Example 195, N-(4-((3R,4R,5S)-3-amino-4-hydroxy-5-methylpiperidin-1-yl)pyridin-3-yl)-6-(2,6-difluoro-4-(4-fluorotetrahydro-2H-pyran-4-yl)phenyl)-5-fluoropicolinamide], in assay [1], the concentration giving a half-maximal response (EC50) turned out to be 36 nM. In addition, the values for the IC50 in assay [2], in assay [3] and in assay [4] were 0.39 nM, 0.01 nM and 0.18 nM, respectively.

As to `C[C@@H]1C[C@H](N)C[C@H](c2ccncc2NC(=O)c2ccc(F)c(-c3c(F)cc(OCC(F)(F)F)cc3F)n2)C1` [Example 196, N-(4-((1R,3S,5S)-3-amino-5-methylcyclohexyl)pyridin-3-yl)-6-(2,6-difluoro-4-(2,2,2-trifluoroethoxy)phenyl)-5-fluoropicolinamide], in assay [1], the response was half-maximal at 246 nM (EC50). The IC50 in assay [2] stood at 2.76 nM; in assay [3], 0.02 nM; in assay [4] it was 1.37 nM.

On to `C[C@H]1C[C@@H](c2ccncc2NC(=O)c2ccc(F)c(-c3c(F)cc(OCC(F)(F)F)cc3F)n2)C[C@@H](N)[C@@H]1O` [Example 197, N-(4-((1R,3R,4R,5S)-3-amino-4-hydroxy-5-methylcyclohexyl)pyridin-3-yl)-6-(2,6-difluoro-4-(2,2,2-trifluoroethoxy)phenyl)-5-fluoropicolinamide], for which, in assay [1], the midpoint of the response, the EC50, lay at 619 nM. Moreover, the figures for the concentration for half-maximal inhibition (IC50) in assay [2], in assay [3] and in assay [4] were 2.56 nM, 0.05 nM and 1.43 nM, respectively.

`C[C@H]1CN(c2ccncc2NC(=O)c2ccc(F)c(-c3c(F)cc(OCC(F)(F)F)cc3F)n2)C[C@@H](N)[C@@H]1O` [Example 198, N-(4-((3R,4R,5S)-3-amino-4-hydroxy-5-methylpiperidin-1-yl)pyridin-3-yl)-6-(2,6-difluoro-4-(2,2,2-trifluoroethoxy)phenyl)-5-fluoropicolinamide] showed an EC50 in assay [1] of 98 nM. In addition, the IC50 worked out at 0.33 nM in assay [2], 0.01 nM in assay [3] and 0.17 nM in assay [4].

In assay [1], `C[C@H]1CN(c2ccncc2NC(=O)c2ccc(F)c(-c3c(F)cc(OCC4CCOCC4)cc3F)n2)C[C@@H](N)[C@@H]1O` [Example 200, N-(4-((3R,4R,5S)-3-amino-4-hydroxy-5-methylpiperidin-1-yl)pyridin-3-yl)-6-(2,6-difluoro-4-((tetrahydro-2H-pyran-4-yl)methoxy)phenyl)-5-fluoropicolinamide] registered a 50% effective concentration (EC50) of 82 nM. Moreover, the results for the IC50 in assay [2], in assay [3] and in assay [4] were 0.56 nM, 0.01 nM and 0.19 nM, respectively.

Compound `CCOC(C)(C)c1cc(F)c(-c2nc(C(=O)Nc3cnccc3N3C[C@@H](N)[C@H](O)[C@@H](C)C3)ccc2F)c(F)c1` [Example 201, N-(4-((3R,4R,5S)-3-amino-4-hydroxy-5-methylpiperidin-1-yl)pyridin-3-yl)-6-(4-(2-ethoxypropan-2-yl)-2,6-difluorophenyl)-5-fluoropicolinamide] yielded a half-maximal effective concentration (EC50) in assay [1] of 239 nM. The concentration for half-maximal inhibition (IC50) in assay [2] is 0.98 nM; in assay [3], 0.01 nM; in assay [4], 0.55 nM.

On to `C[C@@H]1C[C@H](N)C[C@H](c2ccncc2NC(=O)c2ccc(F)c(-c3c(F)cc(C4CCS(=O)(=O)CC4)cc3F)n2)C1` [Example 202, N-(4-((1R,3S,5S)-3-amino-5-methylcyclohexyl)pyridin-3-yl)-6-(4-(1,1-dioxidotetrahydro-2H-thiopyran-4-yl)-2,6-difluorophenyl)-5-fluoropicolinamide], for which the 50% effective concentration (EC50) in assay [1] was 251 nM. The 50% inhibitory concentration (IC50) in assay [2] came to 1.09 nM; in assay [3], 0.01 nM; in assay [4], 0.68 nM.

Compound `C[C@H]1C[C@@H](c2ccncc2NC(=O)c2ccc(F)c(-c3c(F)cc(C4CCS(=O)(=O)CC4)cc3F)n2)C[C@@H](N)[C@@H]1O` [Example 203, N-(4-((1R,3R,4R,5S)-3-amino-4-hydroxy-5-methylcyclohexyl)pyridin-3-yl)-6-(4-(1,1-dioxidotetrahydro-2H-thiopyran-4-yl)-2,6-difluorophenyl)-5-fluoropicolinamide] showed a concentration for a half-maximal effect (EC50) in assay [1] of 1490 nM. Also, the half-inhibitory concentration (IC50) in assay [2] stood at 1.18 nM; in assay [3], 0.02 nM; in assay [4], 0.59 nM.

Compound `C[C@H]1CN(c2ccncc2NC(=O)c2ccc(F)c(-c3c(F)cc(C4CCS(=O)(=O)CC4)cc3F)n2)C[C@@H](N)[C@@H]1O` [Example 204, N-(4-((3R,4R,5S)-3-amino-4-hydroxy-5-methylpiperidin-1-yl)pyridin-3-yl)-6-(4-(1,1-dioxidotetrahydro-2H-thiopyran-4-yl)-2,6-difluorophenyl)-5-fluoropicolinamide] came in with a half-maximal effective concentration (EC50) in assay [1] of 115 nM. Also, the IC50 in assay [2] was 0.38 nM; in assay [3], 0.01 nM; in assay [4] it was 0.14 nM.

On to `C[C@H]1C[C@@H](c2ccncc2NC(=O)c2ccc(F)c(-c3c(F)cc(C4CCS(=O)(=O)CC4)cc3F)n2)C[C@@H](N)[C@H]1O` [Example 205, N-(4-((1R,3R,4S,5S)-3-amino-4-hydroxy-5-methylcyclohexyl)pyridin-3-yl)-6-(4-(1,1-dioxidotetrahydro-2H-thiopyran-4-yl)-2,6-difluorophenyl)-5-fluoropicolinamide], for which the EC50 in assay [1] worked out at 1380 nM. For the same compound, the figures for the half-maximal inhibitory concentration (IC50) in assay [2], in assay [3] and in assay [4] were 1.52 nM, 0.02 nM and 1.07 nM, respectively.

In turn, `C[C@@H]1C[C@H](N)C[C@H](c2ccncc2NC(=O)c2ccc(F)c(-c3c(F)cc([C@@H]4CCOC4)cc3F)n2)C1` [Example 206, N-(4-((1R,3S,5S)-3-amino-5-methylcyclohexyl)pyridin-3-yl)-6-(2,6-difluoro-4-((S)-tetrahydrofuran-3-yl)phenyl)-5-fluoropicolinamide] came in with an EC50 in assay [1] of 59 nM. Moreover, the IC50 in assay [2] turned out to be 1.66 nM; in assay [3], 0.01 nM; in assay [4], 0.8 nM.

`C[C@@H]1C[C@H](N)C[C@H](c2ccncc2NC(=O)c2ccc(F)c(-c3c(F)cc([C@H]4CCOC4)cc3F)n2)C1` [Example 207, N-(4-((1R,3S,5S)-3-amino-5-methylcyclohexyl)pyridin-3-yl)-6-(2,6-difluoro-4-((R)-tetrahydrofuran-3-yl)phenyl)-5-fluoropicolinamide] showed a concentration for a half-maximal effect (EC50) in assay [1] of 96 nM. In addition, the half-maximal inhibitory concentration (IC50) worked out at 1.23 nM in assay [2], 0.01 nM in assay [3] and 0.13 nM in assay [4].

In assay [1], `COc1ccc(F)c(-c2nc(C(=O)Nc3cnccc3[C@@H]3C[C@H](C)C[C@H](N)C3)ccc2F)c1F` [Example 212, N-(4-((1R,3S,5S)-3-amino-5-methylcyclohexyl)pyridin-3-yl)-6-(2,6-difluoro-3-methoxyphenyl)-5-fluoropicolinamide] registered a half-maximal effective concentration (EC50) of 50 nM. Also, the IC50 in assay [2] was found to be 3.77 nM; in assay [3], 0.03 nM; in assay [4], 1.03 nM.
